Data taken from PubChem BioAssay (NCI).
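Where inhibition never reached the appropriate level, the endpoint shown equals the highest concentration tested. Otherwise, values were interpolated linearly from a five-concentration, 48-hour dose response in 96-well plates. At the TGI there is no net growth.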

Legend:
Experiment in all cases: NCI tumour cell line growth inhibition, 48 h
786-0 renal = test system: 786-0 renal
A498 renal = test system: A498 renal
A549 NSCLC = test system: A549 NSCLC
ACHN renal = test system: ACHN renal
BT-549 breast = test system: BT-549 breast
CAKI-1 renal = test system: CAKI-1 renal
CCRF-CEM leukemia = test system: CCRF-CEM leukemia
COLO 205 colon = test system: COLO 205 colon
DU-145 prostate = test system: DU-145 prostate
EKVX NSCLC = test system: EKVX NSCLC
HCC-2998 colon = test system: HCC-2998 colon
HCT-116 colon = test system: HCT-116 colon
HCT-15 colon = test system: HCT-15 colon
HL-60(TB) leukemia = test system: HL-60(TB) leukemia
HOP-62 NSCLC = test system: HOP-62 NSCLC
HOP-92 NSCLC = test system: HOP-92 NSCLC
HS 578T breast = test system: HS 578T breast
HT29 colon = test system: HT29 colon
IGROV1 ovarian = test system: IGROV1 ovarian
K-562 leukemia = test system: K-562 leukemia
KM12 colon = test system: KM12 colon
LOX IMVI melanoma = test system: LOX IMVI melanoma
M14 melanoma = test system: M14 melanoma
MALME-3M melanoma = test system: MALME-3M melanoma
MCF7 breast = test system: MCF7 breast
MDA-MB-435 = test system: MDA-MB-435
MDA-N = test system: MDA-N
MOLT-4 leukemia = test system: MOLT-4 leukemia
NCI-H226 lung = test system: NCI-H226 lung
NCI-H23 lung = test system: NCI-H23 lung
NCI-H460 lung = test system: NCI-H460 lung
NCI-H522 lung = test system: NCI-H522 lung
NCI/ADR-RES ovarian = test system: NCI/ADR-RES ovarian
OVCAR-3 ovarian = test system: OVCAR-3 ovarian
OVCAR-4 ovarian = test system: OVCAR-4 ovarian
OVCAR-5 ovarian = test system: OVCAR-5 ovarian
OVCAR-8 ovarian = test system: OVCAR-8 ovarian
RXF 393 renal = test system: RXF 393 renal
SF-268 CNS = test system: SF-268 CNS
SF-295 CNS = test system: SF-295 CNS
SF-539 CNS = test system: SF-539 CNS
SK-MEL-28 melanoma = test system: SK-MEL-28 melanoma
SK-MEL-5 melanoma = test system: SK-MEL-5 melanoma
SK-OV-3 ovarian = test system: SK-OV-3 ovarian
SN12C renal = test system: SN12C renal
SNB-19 CNS = test system: SNB-19 CNS
SNB-75 CNS = test system: SNB-75 CNS
SR leukemia = test system: SR leukemia
SW-620 colon = test system: SW-620 colon
T-47D breast = test system: T-47D breast
UACC-257 melanoma = test system: UACC-257 melanoma
UACC-62 melanoma = test system: UACC-62 melanoma
UO-31 renal = test system: UO-31 renal
MDA-MB-231 breast = test system: MDA-MB-231 breast
PC-3 prostate = test system: PC-3 prostate
SK-MEL-2 melanoma = test system: SK-MEL-2 melanoma
TK-10 renal = test system: TK-10 renal
U251 CNS = test system: U251 CNS

COc1cc(/C=C2\N=C(c3ccccc3)N(c3cc4cc(Sc5ccccc5)ccc4[nH]3)C2=O)cc(OC)c1OC
TGI (786-0 renal): 26 µM
TGI (A498 renal): 42.9 µM
TGI (A549 NSCLC): > 75 µM
TGI (ACHN renal): > 75 µM
TGI (BT-549 breast): 31.6 µM
TGI (CAKI-1 renal): > 75 µM
TGI (CCRF-CEM leukemia): 51.7 µM
TGI (COLO 205 colon): 21.3 µM
TGI (DU-145 prostate): 37.9 µM
TGI (EKVX NSCLC): 67.5 µM
TGI (HCC-2998 colon): 22.9 µM
TGI (HCT-116 colon): 23.9 µM
TGI (HCT-15 colon): 50.2 µM
TGI (HL-60(TB) leukemia): 31.9 µM
TGI (HOP-62 NSCLC): 41.2 µM
TGI (HOP-92 NSCLC): 29.8 µM
TGI (HS 578T breast): > 75 µM
TGI (HT29 colon): 44.8 µM
TGI (IGROV1 ovarian): > 75 µM
TGI (K-562 leukemia): 17.9 µM
TGI (KM12 colon): 56.8 µM
TGI (LOX IMVI melanoma): 22.2 µM
TGI (M14 melanoma): 22.8 µM
TGI (MALME-3M melanoma): 11.1 µM
TGI (MCF7 breast): 25.1 µM
TGI (MDA-MB-435): 31 µM
TGI (MDA-N): 15.9 µM
TGI (MOLT-4 leukemia): 26.9 µM
TGI (NCI-H226 lung): 28.9 µM
TGI (NCI-H23 lung): > 75 µM
TGI (NCI-H460 lung): 35.2 µM
TGI (NCI-H522 lung): 12.9 µM
TGI (NCI/ADR-RES ovarian): 59.1 µM
TGI (OVCAR-3 ovarian): 60.1 µM
TGI (OVCAR-4 ovarian): > 75 µM
TGI (OVCAR-5 ovarian): > 75 µM
TGI (OVCAR-8 ovarian): 41.5 µM
TGI (RXF 393 renal): 26.8 µM
TGI (SF-268 CNS): 18.2 µM
TGI (SF-295 CNS): 73.2 µM
TGI (SF-539 CNS): 24.6 µM
TGI (SK-MEL-28 melanoma): 35.8 µM
TGI (SK-MEL-5 melanoma): 20.4 µM
TGI (SK-OV-3 ovarian): > 75 µM
TGI (SN12C renal): 52.6 µM
TGI (SNB-19 CNS): > 75 µM
TGI (SNB-75 CNS): 56.2 µM
TGI (SR leukemia): 12.3 µM
TGI (SW-620 colon): 68 µM
TGI (T-47D breast): 34.2 µM
TGI (UACC-257 melanoma): 40.3 µM
TGI (UACC-62 melanoma): 24.5 µM
TGI (UO-31 renal): 48.9 µM

CC(=O)c1c(SCCN2CCCCCC2)n(-c2ccccc2)c(=S)n(-c2ccccc2)c1=O
TGI (786-0 renal): 3.36 µM
TGI (A498 renal): 28.7 µM
TGI (A549 NSCLC): 15.2 µM
TGI (ACHN renal): 3.31 µM
TGI (BT-549 breast): 32.7 µM
TGI (CAKI-1 renal): 8.26 µM
TGI (CCRF-CEM leukemia): 1.24 µM
TGI (COLO 205 colon): 3.67 µM
TGI (DU-145 prostate): 5.18 µM
TGI (EKVX NSCLC): 40.4 µM
TGI (HCC-2998 colon): 14.6 µM
TGI (HCT-116 colon): 18.5 µM
TGI (HCT-15 colon): 33.7 µM
TGI (HOP-62 NSCLC): > 56.4 µM
TGI (HOP-92 NSCLC): 20.1 µM
TGI (HS 578T breast): 64.1 µM
TGI (HT29 colon): 20.7 µM
TGI (IGROV1 ovarian): 22.7 µM
TGI (K-562 leukemia): 10.9 µM
TGI (KM12 colon): > 54.1 µM
TGI (LOX IMVI melanoma): 12.5 µM
TGI (M14 melanoma): 4.9 µM
TGI (MALME-3M melanoma): 3.51 µM
TGI (MDA-MB-231 breast): 28.1 µM
TGI (MDA-MB-435): 25.5 µM
TGI (MDA-N): 20.3 µM
TGI (NCI-H226 lung): 61.3 µM
TGI (NCI-H23 lung): 38.2 µM
TGI (NCI-H460 lung): > 54.4 µM
TGI (NCI-H522 lung): 2.95 µM
TGI (NCI/ADR-RES ovarian): > 100 µM
TGI (OVCAR-3 ovarian): 12 µM
TGI (OVCAR-4 ovarian): 79.3 µM
TGI (OVCAR-5 ovarian): > 69 µM
TGI (OVCAR-8 ovarian): 24.4 µM
TGI (PC-3 prostate): 14.2 µM
TGI (RXF 393 renal): 3.41 µM
TGI (SF-268 CNS): 26.3 µM
TGI (SF-295 CNS): > 100 µM
TGI (SF-539 CNS): 13.1 µM
TGI (SK-MEL-2 melanoma): 43.2 µM
TGI (SK-MEL-28 melanoma): 23.4 µM
TGI (SK-MEL-5 melanoma): 22.2 µM
TGI (SK-OV-3 ovarian): > 100 µM
TGI (SN12C renal): 19.5 µM
TGI (SNB-19 CNS): > 100 µM
TGI (SNB-75 CNS): 32.8 µM
TGI (SR leukemia): 8.58 µM
TGI (SW-620 colon): 4.96 µM
TGI (T-47D breast): 7.36 µM
TGI (TK-10 renal): 4.45 µM
TGI (U251 CNS): 32.5 µM
TGI (UACC-257 melanoma): 9.62 µM
TGI (UACC-62 melanoma): 21 µM

CC(C)=C1C(=O)c2c(Cl)sc(Cl)c2C1=O
TGI (786-0 renal): 74.9 µM
TGI (A498 renal): > 100 µM
TGI (A549 NSCLC): 81.8 µM
TGI (ACHN renal): 40.8 µM
TGI (BT-549 breast): 42.9 µM
TGI (CAKI-1 renal): 32.7 µM
TGI (CCRF-CEM leukemia): > 100 µM
TGI (COLO 205 colon): 38.2 µM
TGI (DU-145 prostate): 62.1 µM
TGI (EKVX NSCLC): 81.1 µM
TGI (HCT-116 colon): 33 µM
TGI (HCT-15 colon): 43.3 µM
TGI (HL-60(TB) leukemia): 90.7 µM
TGI (HOP-62 NSCLC): > 100 µM
TGI (HOP-92 NSCLC): 45.5 µM
TGI (HS 578T breast): 80.2 µM
TGI (HT29 colon): 67.8 µM
TGI (IGROV1 ovarian): 46 µM
TGI (K-562 leukemia): > 100 µM
TGI (KM12 colon): 33.8 µM
TGI (LOX IMVI melanoma): 34.2 µM
TGI (M14 melanoma): 37.9 µM
TGI (MALME-3M melanoma): 44.5 µM
TGI (MCF7 breast): > 100 µM
TGI (MDA-MB-231 breast): 57.4 µM
TGI (MDA-MB-435): 39 µM
TGI (MDA-N): 64 µM
TGI (MOLT-4 leukemia): 94.7 µM
TGI (NCI-H226 lung): > 100 µM
TGI (NCI-H23 lung): 36.6 µM
TGI (NCI-H460 lung): > 100 µM
TGI (NCI-H522 lung): 32.6 µM
TGI (NCI/ADR-RES ovarian): 54.5 µM
TGI (OVCAR-3 ovarian): 75.1 µM
TGI (OVCAR-4 ovarian): 34.5 µM
TGI (OVCAR-5 ovarian): > 100 µM
TGI (OVCAR-8 ovarian): 38.3 µM
TGI (SF-268 CNS): 79.5 µM
TGI (SF-295 CNS): > 100 µM
TGI (SF-539 CNS): 50.5 µM
TGI (SK-MEL-2 melanoma): 50.6 µM
TGI (SK-MEL-28 melanoma): 58.3 µM
TGI (SK-MEL-5 melanoma): > 100 µM
TGI (SK-OV-3 ovarian): > 100 µM
TGI (SN12C renal): 48 µM
TGI (SNB-75 CNS): 59.9 µM
TGI (SR leukemia): > 100 µM
TGI (SW-620 colon): 70.5 µM
TGI (T-47D breast): 97.6 µM
TGI (TK-10 renal): 56.7 µM
TGI (U251 CNS): 46.3 µM
TGI (UACC-257 melanoma): 43 µM
TGI (UACC-62 melanoma): 38.3 µM
TGI (UO-31 renal): 60.4 µM
